This experiment in a line: Inhibition of Bacillus anthracis lethal toxin-induced mouse RAW264.7 cell death preincubated for 1 hr followed by lethal toxin challenge measured after 4 hrs.

`Cc1cccc(C)c1NC(=O)N/N=C/c1ccc(Cl)cc1` had an IC50 of 1700 nM.
Under `Cc1cccc(C)c1NC(=O)N/N=C/c1c(F)c(F)c(N=[N+]=[N-])c(F)c1F` stands over 25000 nM; under `Cc1cccc(C)c1NC(=O)N/N=C/c1ccccc1F`, 8200 nM.
For the compound `Cc1cccc(C)c1NC(=O)N/N=C/c1ccc(Br)cc1`, half-maximal inhibition (IC50) required 1400 nM.
The value for `Cc1cccc(/C=N/NC(=O)Nc2c(C)cccc2C)c1` was 13400 nM; that for `Cc1cccc(C)c1NC(=O)N/N=C/c1ccc(N=[N+]=[N-])cc1F` was 2200 nM; that for `Cc1cccc(C)c1NC(=O)N/N=C/c1ccc(Br)s1` was 1700 nM.
The value for `CCc1cccc(CC)c1NC(=O)N/N=C/c1ccc(Br)cc1` was over 12500 nM; that for `Cc1cccc(C)c1/N=C(\N)N/N=C/c1ccc(Br)cc1` was 13800 nM; that for `Cc1cccc(C)c1NC(=O)N/N=C/c1c(F)cc(Br)cc1F` was 4000 nM.
Compound `Cc1cccc(C)c1NC(=S)N/N=C/c1ccc(Br)cc1` yielded an IC50 of 1500 nM.
In the case of `Cc1cccc(C)c1NC(=O)N/N=C/c1ccc(I)cc1`, the IC50 is 1800 nM.
The value for `C/C(=N\NC(=O)Nc1c(C)cccc1C)c1ccc(Br)cc1` was 2500 nM; that for `Cc1cccc(C)c1NC(=O)N/N=C/c1ccc(Br)c(Cl)c1` was 3400 nM; that for `Cc1cccc(C)c1NC(=O)N/N=C/c1ccc(C(F)(F)F)cc1` was 2600 nM.
The compound `Cc1cccc(C)c1NC(=O)N/N=C/c1ccc(Br)c(F)c1` showed an IC50 of 1500 nM.
Under `Cc1cccc(C)c1NC(=O)N/N=C/c1ccc(C(C)C)cc1` stands 6500 nM; under `Cc1cccc(C)c1NC(=O)N/N=C/c1ccc(F)cc1F`, 2100 nM; under `Cc1cccc(C)c1NC(=O)N/N=C/c1ccc(N=[N+]=[N-])cc1`, 2800 nM.
The value for `COc1ccc(/C=N/NC(=O)Nc2c(C)cccc2C)cc1` was over 12500 nM; that for `Cc1ccc(/C=N/NC(=O)Nc2c(C)cccc2C)cc1` was 2900 nM.
With `Cc1cccc(C)c1NC(=O)N/N=C/c1cccs1`, the IC50 was over 25000 nM.
The value for `Cc1cccc(C)c1NC(=O)N/N=C/c1ccc(Br)cc1Cl` was 3200 nM; that for `CCc1ccc(/C=N/NC(=O)Nc2c(C)cccc2C)cc1` was 3000 nM; that for `Cc1cccc(C)c1NC(=O)N/N=C/c1ccc(Br)cc1F` was 400 nM.
Under `Cc1cccc(C)c1NC(=O)N/N=C/c1ccc(C#N)cc1` stands 2500 nM; under `Cc1cccc(C)c1NC(=O)N(C)/N=C/c1ccc(Br)cc1`, 2000 nM.
The value for `Cc1ccc(/C=N/NC(=O)Nc2c(C)cccc2C)cc1F` was 1800 nM; that for `C#Cc1ccc(/C=N/NC(=O)Nc2c(C)cccc2C)cc1` was 1700 nM; that for `Cc1cccc(C)c1NC(=O)N/N=C/c1ccc(Br)o1` was over 25000 nM.
Compound `Cc1cc(C)c(NC(=O)N/N=C/c2ccc(Br)cc2)c(C)c1` displayed an IC50 of 12600 nM.
In turn, `C#CCN(/N=C/c1ccc(Br)cc1)C(=O)Nc1c(C)cccc1C` registered an IC50 of over 12500 nM.
The value for `Cc1cccc(C)c1NC(=O)N/N=C/c1ccc(F)cc1` was 7000 nM.

Usually IC50 stands for the concentration that gives 50% inhibition.

Source of the values: BindingDB's records for doi:10.1021/ml400486k (University of California, 2014).
